The test system of series [1] is SU-DHL-9 (MLL2 homozygous indel mutant) cell line. Kind of series: alamarBlue cell proliferation assay, SU-DHL-9 cell line. It is filed as cell-based, human. Particulars: for activity at 10 µM: Homo sapiens, 48 hours, normalized to carrier-treated control, SU-DHL-9, read-out: % Cell Proliferation; for activity against the MLL2 double LoF mutant cell line: SU-DHL-9, in words; for activity as worded in SAR analysis (selective toxicity against SU-DHL-9): in words, restates Tables 3 and 4. The procedure:
Cell line DOHH2 was obtained from DSMZ. Pfeiffer was obtained from ATCC. SU-DHL-9 was obtained from Martin Dyer (University of Leicester, UK).
Compounds were initially solubilized in DMSO at a concentration of 10 mM. […] Ninety microliters of cells maintained at a concentration of 4×10^5 cells/mL were dispensed into wells of a MICROTEST™ 96-well Assay Plate, Optilux™ (BD). Ten microliters of the 100 μM compound solution were then added to the cells resulting in a final compound concentration of 10 μM. Each compound was tested in triplicate. […] Compounds were incubated with the cells in a 37° C. incubator with 5% CO2, humidified atmosphere for 48 hours before being subjected to the alamarBlue® cell proliferation assay (Life Technologies). Raw fluorescent units were corrected for background noise and normalized to the carrier-treated control.

In series [2] the test system is DoHH-2, OCI-LY3, WSU-DLCL2 (all wild-type for MLL2). Description: alamarBlue cell proliferation assay, MLL2 wild-type cell lines. Format: cell-based. The following applies: for activity against wild-type cells: in words. The procedure:
Diffuse large B-cell lymphoma cell lines were maintained in RPMI medium 1640 (Life Technologies) supplemented with 10% (v/v) fetal bovine serum (Life Technologies) and 1% penicillin/streptomycin (Life Technologies) in a 37° C. incubator with 5% CO2, humidified atmosphere. Cell line DOHH2 was obtained from DSMZ. Pfeiffer was obtained from ATCC. SU-DHL-9 was obtained from Martin Dyer (University of Leicester, UK).
Compounds were initially solubilized in DMSO at a concentration of 10 mM. This compound solution was further diluted 1:100 in RPMI medium 1640 to a final concentration of 100 μM. Ninety microliters of cells maintained at a concentration of 4×10^5 cells/mL were dispensed into wells of a MICROTEST™ 96-well Assay Plate, Optilux™ (BD). Ten microliters of the 100 μM compound solution were then added to the cells resulting in a final compound concentration of 10 μM. Each compound was tested in triplicate. Ten microliters of a 1:100 DMSO to RPMI medium 1640 solution were also added to 90 μL of cells as a carrier control. Furthermore, each plate included wells containing only RPMI medium 1640 to serve as a background noise control as well as cells that were completely untreated. Compounds were incubated with the cells in a 37° C. incubator with 5% CO2, humidified atmosphere for 48 hours before being subjected to the alamarBlue® cell proliferation assay (Life Technologies). Raw fluorescent units were corrected for background noise and normalized to the carrier-treated control.
The activity of Compound 3 in vitro was investigated further using the cell lines DoHH-2, OCI-LY3, WSU-DLCL2 (all wild-type for MLL2) and SU-DHL9. In addition, the dose response for Compound 2 was investigated in cell lines mutant for MLL2 or both MLL2 and EZH2. The dose response for Compound 3 was investigated in a MLL2 mutant cell line. Methods were as described for Example 3. Cell-line WSU-DLCL2 was obtained from DSMZ and OCI-Ly lines 3 was obtained from Louis Staudt (US National Institutes of Health).
In general terms: Resazurin is reduced to fluorescent resorufin, in cell work by metabolically active cells.

Series [3] has as its system SU-DHL-9 (MLL2 mutated) tumours. Description: SU-DHL-9 mouse xenograft model. Format: in vivo. The following applies: eight days, day nine. How it is done:
NOD/SCID/γ^null (NSG) mice were bred at the local BCCRC animal facility. To establish primary tumors, male NSG mice were inoculated with 1×10^7 cells of the human diffuse histiocytic lymphoma cell line SU-DHL-9 in 50 μl PBS in the flank area. After development of s.c. tumors, mice were sacrificed and small fragments of the tumors (˜20 mg) were transplanted s.c. into the right flank of anesthetized six-ten weeks old male NSG recipient mice using 13 G trocar needles. Treatment was initiated once the tumors became palpable. Tumourlength and width was determined by caliper and tumourvolume was calculated by the modified ellipsoidal formula as […].
Compounds were diluted in a mixture of 50% DMSO and 50% polyethylene glycol 200. Eight tumor-bearing mice per group were administered by intraperitoneal injections daily over a period of eight days with either compounds at doses of 1 mg/kg or 4 mg/kg (Compound 3; NSC 127763), 4 mg or 12 mg/kg (Compound 2; NSC 304107) or the vehicle for control. Body weight was recorded every two days, tumoursize every four days and mice were monitored for any other additional adverse effects. Experimental animals were sacrificed at day nine, tumourvolumes were determined and the significance of differences was determined by Student's t-test after normalizing to the initial tumourvolume.

The target of series [4] is T1, GST-BPTF dual PHD finger-bromodomain (Homo sapiens, UniProt Q12830).
T1 construct: The dual PHD finger-bromodomain (residues 2583-2751) from the human BPTF (gi:31322942); made in house; host or cells: E. coli BL21-AI
Description: BPTF pull down assay with H3K4 methylated peptides. The following applies: 68 μM drug. Format: binding. How it is done: Certain embodiments of the invention relate to the use of a “pull down” assay to characterize the binding of candidate compounds to the target mark. A general schema for such an assay as it applies to BPTF is shown in FIG. 4 and described in Example 5. Briefly, the GST-labeled PHD finger-bromodomain of BPTF was incubated with the candidate compound and H3K4me0, me1, me2 or me3 peptides that were coupled to streptavidin-labeled dynabeads through a biotin molecule on the peptide. After washing with an appropriate buffer, bound protein was eluted from the beads and assessed by SDS-PAGE and optionally Western blot. One skilled in the art will appreciate that this assay can be readily adapted to other readers/erasers and histone marks.
The full-length human BPTF construct was obtained from C. David Allis of the Laboratory of Chromatin Biology, Rockefeller University (Li et al., 2006, ibid). The dual PHD finger-bromodomain (residues 2583-2751) from the human BPTF (gi:31322942) was cloned into a pDEST15 vector using Gateway® cloning technology allowing for an N-terminal GST tag (Life Technologies). Over-expression of the GST-BPTF dual PHD finger-bromodomain was induced in BL21-AI™ chemically competent E. coli cells using LB medium supplemented with 1 mM IPTG and 0.2% L-arabinose for 2 hours in a 37° C. shaking incubator. GST-BPTF dual PHD finger-bromodomain was purified using Glutathione Sepharose 4B media (GE Healthcare Life Sciences) and dialyzed against PBS (Life Technologies) overnight.
The peptide pull-down experiment was performed essentially as previously described (Ruthenburg et al., 2011, Cell, 145(5):692-706.). Fifty microliters of M-280 streptavidin-coupled Dynabeads® (Life Technologies) were dispensed into 1.5 mL microtubes and washed 3×50 μL in PBS. The beads were then incubated with C-terminally biotinylated H3K4me0, me1, me2 or me3 peptides 21 amino acids long (Anaspec) rotating for 1 hour at 4° C. under saturating conditions. The beads were washed 3×100 μL in HBS-TD (10 mM Na-HEPES, 150 mM NaCl, 0.005% Tween-20, 2 mM DTT) and incubated with 6.8 μM of GST-BPTF along with either 68 μM of drug in a 1:100 DMSO to PBS solution or carrier alone rotating for 3 hours at 4° C. The beads were then washed 10×200 μL in HBS-TD. The protein was eluted using 2×LDS sample buffer (Life Technologies) and 1× reducing agent (Life Technologies) at 85° C. for 10 minutes. Samples were subjected to SDS-PAGE and bands were visualized using either SimplyBlue stain (Life Technologies) or GST antibody (Santa Cruz). Quantification of bands was made using ImageJ software.

Series [5] has as its system DoHH2 Cells (wildtype for EZH2, MEF2B and MLL2). Kind of series: Cell viability of lymphoma cell lines, DoHH-2. It is filed as cell-based. On the set-up: Effect on Cell Viability (% survival) DoHH2 Cells: concentration or dose not given beside the values. Particulars: for Effect on Cell Viability (% survival) DoHH2 Cells: Table 5. How it is done: (§1) Compound 50 was tested for its effect on the viability of three lymphoma cell lines in vitro using standard methods. The cell lines tested were: DoHH-2 (wildtype for EZH2, MEF2B and MLL2); WSU-DLCL2 (EZH2 mutation Y641F (wildtype for MEF2B and MLL2)) and DB (EZH2 mutation Y641N, the MEF2B mutation D83V and three mutations in MLL2 (two of which lead to a truncated protein after residue Q2736 and the third allele has a 1 base pair deletion at residue P480)).
(§2) Compound 51 (NSC2540) was tested for its effect on the viability of four lymphoma cell lines in vitro using standard methods. The cell lines tested were DoHH-2, WSU-DLCL2, DB and SU-DHL-9 (EZH2 wildtype, MEF2B wildtype, MLL2 indel).

The test system of series [6] is WSU-DLCL2 Cells (EZH2 mutation Y641F). Kind of series: Cell viability of lymphoma cell lines, WSU-DLCL2. Format: cell-based, human. Also on record: Effect on Cell Viability (% survival) WSU-DLCL2 Cells: concentration or dose not given beside the values. Particulars: for Effect on Cell Viability (% survival) WSU-DLCL2 Cells: Table 5. How it is done: as §1, §2
Series [7] deals with WSU-DLCL2 human diffuse large cell lymphoma tumours. Description: WSU-DLCL2 mouse xenograft model. The following applies: 1 mg/kg or 4 mg/kg intraperitoneal daily for ten days, evaluation at day 12; p=0.0047 control vs 4 mg/kg. Format: in vivo. The procedure:
WSU-DLCL2 tumourfragments were transplanted subcutaneously into the flank of male NSG mice. Mice were 9.0-9.3 weeks at transplantation and treatment was started when the mice were between 12.9 and 13.1 weeks. 8 mice were used per group and treatment was daily for ten days with evaluation at day 12. Tumoursize determined by caliper every four days, tumourvolume calculated by length×width^2/2.
The groups of mice were treated with vehicle (control), 1 mg/kg Compound 50 or 4 mg/kg Compound 50 by intraperitoneal injection. Vehicle was 50% DMSO/50% PEG-400.
WSU-DLCL2 tumourfragments were transplanted subcutaneously into the flank of male NSG mice. Mice were 5.3-9.4 weeks at transplantation and treatment was started when the mice were between 8.6 and 12.7 weeks. 8 mice were used in the control group and 6 mice were used in the Compound 51 treated group. Treatment was daily for ten days with evaluation at day 12. Tumoursize determined by caliper every four days, tumourvolume calculated by length×width^2/2.
The groups of mice were treated with vehicle (control) or Compound 51 by intraperitoneal injection at 4 mg/kg for the first 5 days and 2 mg/kg for the subsequent 5 days. Vehicle was 50% DMSO/50% PEG-400.

The subject of series [8] is DB (EZH2 mutation Y641N, MEF2B mutation D83V, three mutations in MLL2). Kind of series: Cell viability of lymphoma cell lines, DB. Format: cell-based. The following applies: in words. The procedure: as §1
[9] abbreviates: 6.8 μM GST-BPTF, GST antibody staining.

SMILES strings stand for the structures. Like-named read-outs stand apart in the source and are kept apart here.

`C=C(CN(C)C)C(=O)c1cc(C)ccc1C` [Compound 1, 2-dimethylaminomethyl-1-(2,5-dimethyl-phenyl)-propenone]: the activity at 10 µM in series [1] (Table 3, scaffold A) was below 10%. In series [1], the “activity against the MLL2 double LoF mutant cell line” value is on record as “active” and the “activity as worded in SAR analysis (selective toxicity against SU-DHL-9)” value (“activity … (selective toxicity against SU-DHL-9)” below) is recorded as “active”. The “activity against wild-type cells” value in series [2] is “inactive”.
For `CN(C)CCC(=O)c1ccc(Cl)cc1Cl` [Compound 2, 1-(2,4-dichloro-phenyl)-3-dimethylamino-propan-1one], the activity at 10 µM in series [1] (Table 3, scaffold A) is below 10%. Besides, in series [1], the “activity against the MLL2 double LoF mutant cell line” value is “active” and the “activity … (selective toxicity against SU-DHL-9)” value is given as “active”. The median tumour growth in series [3] (12 mg/kg intraperitoneal daily, untreated control 1755%) is on record as 1305%. In addition, the “activity against wild-type cells” value in series [2] is “inactive”. Besides, in series [4] (setting [9]), the “binding of H3K4me2 with BPTF” value is reported as “able to stabilize the binding” and the “binding of H3K4me3 with BPTF” value was “diminished binding”.
Consider `O=C1c2ccccc2C(=O)c2c(NC(=O)C(Cl)CCl)cccc21` (centres unmarked) [Compound 3, 2,3-didhloro-N-(9,10-dioxo-9,10-dihydro-anthracen-1-yl)-propionamide], for which the activity at 10 µM in series [1] (Table 4, scaffold B) was below 10%. Further, in series [1], the “activity against the MLL2 double LoF mutant cell line” value is “active” and the “activity … (selective toxicity against SU-DHL-9)” value is “active”. The median tumour growth in series [3] (4 mg/kg intraperitoneal daily, untreated control 563%) came out at 362%. For the same molecule, in series [2] (DoHH-2, OCI-LY3, WSU-DLCL2), the “effect on cells where MLL2 was wild-type” value is reported as “no obvious effect”. In addition, the “activity against wild-type cells” value in series [2] is “inactive”. Besides, in series [4] (setting [9]), the “binding of H3K4me1 with BPTF” value is given as “able to stabilize the binding” and the “binding of H3K4me3 with BPTF” value is “diminished binding”. The “Densitometry value, H3K4me3 + compound” value in series [4] (without compound 2545) stood at 4227. In addition, the “Densitometry value, H3K4me1 + compound” value in series [4] (without compound 9350) came out at 13335.
Regarding `Cc1c(Cl)ccc2c(C(=O)NN)cc(-c3ccc(Cl)cc3)nc12` [Compound 48], the “Effect on Cell Viability (% survival) DoHH2 Cells” value in series [5] came out at 90%. Besides, the “Effect on Cell Viability (% survival) WSU-DLCL2 Cells” value in series [6] is recorded as 40%.
For `Cc1c(Cl)ccc2c(C(=O)CNCc3ccccc3)cc(-c3ccc(Cl)cc3)nc12` [Compound 49], in that order: 70% and 50%.
For the molecule `O=C(CBr)c1cc(-c2ccccc2)nc2c(Cl)cc(Cl)cc12` [Compound 50], the effect on viability result in series [5] (DoHH-2, in words) was “reduced the viability”; in series [8], “reduced the viability”; in series [6] (WSU-DLCL2, in words), “highest activity”. In series [7], the “effect on tumour volume” value is “able to reduce tumour volume”.

Source of the values: patent publication US9552457B2, “Reprogramming effector protein interactions to correct epigenetic defects in cancer” (BRITISH COLUMBIA CANCER AGENCY BRANCH, priority 2012, dated 2017).
